Consider two molecules from US11225642B2, “Method for producing renal progenitor cells” (KYOTO UNIVERSITY, priority 2013, dated 2022).

The test system of this test is OSR1-positive cells sorted from OSR1-GFP & SIX2-tdTomato reporter human iPS cell line. Put plainly: SIX2-positive cell induction method 3, SIX2-tdTomato-positive cell rate by flow cytometer. In kind it is cell-based. As to conditions: stage 3 medium with 5 ng/ml TGFβ1 and 0.5 μM Dorsomorphin. As to the method: The OSR1-GFP & SIX2-tdTomato reporter human iPS cell line obtained by the method in Example 1 was cultured in the manner described in stage 1 of induction method 1 to become confluent in 10-cm dishes using SNL cells as feeder cells. A CTK solution was added to dissociate the cells. After removal of the feeder cells, Accutase™ (Innovative Cell Technologies, AT-104) was added to disperse iPS cells to result in single cells. Then, the obtained cells were suspended in a DMEM/F12 medium containing 10 μM Y-27632 (Wako, 253-00513), 1 μM CHIR99021, 1 μM TTNPB, 1% GlutaMAX (100×), 2% FBS, and 0.5% PenStrep. The obtained cell suspensions (1×10^5 cells/well (for a 96-well dish)) were transferred to a dish coated with 0.1% gelatin (Gelatin from porcine skin, Type A (Sigma, G1890)), followed by adhesion culture at 37° C. in a 5% CO2 atmosphere for 2 days.
The cells obtained at stage 1 were washed with PBS. The medium was exchanged with a DMEM/F12 medium containing 1 μM TTNPB, 0.1% 2-mercaptoethanol (1000×), 1% GlutaMAX (100×), 10% KnockOut SR, 0.1 mM MEM NEAA, and 0.5% PenStrep, followed by adhesion culture at 37° C. in a 5% CO2 atmosphere for 3 to 9 days. In this case, the medium was exchanged every 3 days with a medium having the same conditions.
Accutase™ was added to cells obtained at stage 2 to dissociate the cells. […]
(In general: A flow cytometer gives signals particle by particle.)

`c1cc(-c2cnn3cc(-c4ccc(OCCN5CCCCC5)cc4)cnc23)ccn1` [Dorsomorphin, 6-[4-(2-piperidin-1-yl-ethoxy)phenyl]-3-pyridin-4-yl-pyrazolo[1,5-a]pyrimidine] displayed an SIX2-tdTomato-positive cell rate of 31.1±10.0%.
Next, “TGFβ1: TGFβ signaling activator protein (Peprotech)”: 31.1±10.0%.
